Experimental data from article PMC11035592, “Intranasal oxytocin suppresses seizure-like behaviors in a mouse model of NGLY1 deficiency” (Communications Biology, 2024).

Tests used:
[1] = Oxytocin levels in plasma, brain and spinal cord 5 min after intranasal oxytocin (enzyme immunoassay); type: in vivo, mouse; set-up: Oxytocin level, Thalamus, Mean / Oxytocin level, Hypothalamus, Mean / Oxytocin level, Cortex, Mean / Oxytocin level, Spinal cord, Mean / Oxytocin level, Striatum, Mean / Oxytocin level, Hippocampus, Mean: unit not given here; conditions: for Oxytocin level, Cortex, Mean / Oxytocin level, Hippocampus, Mean / Oxytocin level, Hypothalamus, Mean / Oxytocin level, Plasma, Mean / Oxytocin level, Spinal cord, Mean / Oxytocin level, Striatum, Mean / Oxytocin level, Thalamus, Mean: mean of n = 3; for Oxytocin level, Cortex, % of Control / Oxytocin level, Hippocampus, % of Control / Oxytocin level, Hypothalamus, % of Control / Oxytocin level, Spinal cord, % of Control / Oxytocin level, Striatum, % of Control / Oxytocin level, Thalamus, % of Control: mean, figure corresponds to % of the plasma 0 mg/kg mean; for Oxytocin level, Plasma, % of Control: mean as % of 0 mg/kg plasma mean
Protocol: Delivery of intranasal oxytocin to the central nervous system was confirmed using 17 to 18-week-old female Ngly1^−/− mice.
Fig. 5 Oxytocin levels in the plasma, brain, and spinal cord of Ngly1^−/− mice after intranasal administration of oxytocin. Oxytocin (10, 100 mg/kg) or saline was intranasally administered to female Ngly1^−/− mice (17 or 18-week-old) under anesthesia with 2.5% isoflurane (a). b Plasma, c hippocampus, d striatum, e cerebral cortex, f spinal cord, g thalamus, and h hypothalamus were collected 5 min after the single administration. Oxytocin levels were measured using enzyme immunoassay. Data represent mean + standard deviation and individual values (N = 3). […]
Oxytocin peptide (CAS number 50-56-6) was purchased from AA Blocks (San Diego, CA, USA) and dissolved in saline at a maximum concentration of 200 mg/mL. Female Ngly1^−/− mice were anesthetized with 2.5% isoflurane and intranasally administered with oxytocin using a manual pipette at a volume of 0.5 ml/kg. Oxytocin solutions were prepared in Protein LoBind Tubes (Eppendorf, Hamburg, Germany) just before the intranasal administration.

[2] = test system: generally healthy older men (55–95 years old); conditions: chronic intranasal administration, twice daily for four weeks; cited from earlier work
Text: (§1) The safety of single or chronic intranasal oxytocin administration has been investigated in several clinical studies. […] Based on these clinical studies, oxytocin has the potential to be administered to patients with NG ...

[3] = test system: school-age children (8–12 years old); conditions: 90 min and 24 h after a single intranasal administration; cited from earlier work
Text: as §1

[4] = test system: patients with NGLY1 deficiency; conditions: cited from earlier work
Text: For epileptic seizures in patients with NGLY1 deficiency, some approved drugs, including levetiracetam, valproate, lamotrigine, and clobazam, have been tested; however, their efficacies were limited.

[5] = female Ngly1−/− mice, 17 to 18-week-old, 10 or 100 mg/kg single intranasal, 5 min after administration, enzyme immunoassay, N = 3, vs saline

## CC[C@H](C)[C@@H]1NC(=O)[C@H](Cc2ccc(O)cc2)NC(=O)[C@@H](N)CSSC[C@@H](C(=O)N2CCC[C@H]2C(=O)N[C@@H](CC(C)C)C(=O)NCC(N)=O)NC(=O)[C@H](CC(N)=O)NC(=O)[C@H](CCC(N)=O)NC1=O [oxytocin, Oxytocin]
[1]; 10 mg/kg intranasal
  Oxytocin level, Cortex, Mean: 2.20
  Oxytocin level, Cortex, % of Control: 0.776%
  Oxytocin level, Hippocampus, Mean: 8.47
  Oxytocin level, Hippocampus, % of Control: 3%
  Oxytocin level, Hypothalamus, Mean: 87.40
  Oxytocin level, Hypothalamus, % of Control: 31%
  Oxytocin level, Plasma, % of Control: 4479%
  Oxytocin level, Plasma, Mean: 12705.67
  Oxytocin level, Spinal cord, Mean: 2.17
  Oxytocin level, Spinal cord, % of Control: 0.764%
  Oxytocin level, Striatum, Mean: 2.60
  Oxytocin level, Striatum, % of Control: 0.917%
  Oxytocin level, Thalamus, Mean: 3.40
  Oxytocin level, Thalamus, % of Control: 1.2%
[1]; 100 mg/kg intranasal
  Oxytocin level, Cortex, Mean: 15.07
  Oxytocin level, Cortex, % of Control: 5.31%
  Oxytocin level, Hippocampus, Mean: 23.47
  Oxytocin level, Hippocampus, % of Control: 8%
  Oxytocin level, Hypothalamus, Mean: 132.73
  Oxytocin level, Hypothalamus, % of Control: 47%
  Oxytocin level, Plasma, % of Control: 26235%
  Oxytocin level, Plasma, Mean: 74420.67
  Oxytocin level, Spinal cord, Mean: 4.10
  Oxytocin level, Spinal cord, % of Control: 1.45%
  Oxytocin level, Striatum, Mean: 24.23
  Oxytocin level, Striatum, % of Control: 8.54%
  Oxytocin level, Thalamus, Mean: 42.47
  Oxytocin level, Thalamus, % of Control: 15%
[1]; [5]
  increasing trend of oxytocin level in hypothalamus: not observed
  oxytocin level in cerebral cortex: increased
  oxytocin level in hippocampus: increased
  oxytocin level in plasma: increased
  oxytocin level in spinal cord: increased
  oxytocin level in striatum: increased
  oxytocin level in thalamus: increasing trend
[2]
  tolerability: well-tolerated
[3]
  side-effects: no side-effect

## Nc1nnc(-c2cccc(Cl)c2Cl)c(N)n1 [lamotrigine]
[4]
  efficacy for epileptic seizures: limited

## CN1C(=O)CC(=O)N(c2ccccc2)c2cc(Cl)ccc21 [clobazam]
[4]
  efficacy for epileptic seizures: limited

## CCCC(CCC)C(=O)O [valproate]
[4]
  efficacy for epileptic seizures: limited

## CC[C@@H](C(N)=O)N1CCCC1=O [levetiracetam]
[4]
  efficacy for epileptic seizures: limited
